According to patent US20170189372A1, “USE OF SUBSTITUTED CHROMAN COMPOUNDS” (INSTYTUT BIOLOGII MEDYCZNEJ, priority 2014, published 2017):

Key:
[1] = tested on: reporter cell line for IL-2 (EL-4 cells); assay: FCC primary screening with IL-2 reporter cells; format: cell-based, mouse; settings: relative viability×(relative fluorescence−100); PMA and ionomycin activated, compound 0.4 μg/ml, 18 h
Method: (§1) Development of reporter cell lines was described previously (Ulleras, E., D. Trzaska, et al. (2005); “Development of the “Cell Chip”: a new in vitro alternative technique for immunotoxicity testing”, Toxicology 206(2): 245-56). Briefly, EL-4 cells were stably transfected with transgene consisting of promoter regions from mouse β-actin, interleukin-2 (IL-2), interleukin-4 (IL-4), interferon-γ (IFN-γ), and interleukin-10 (IL-10) and ORF for EGFP. Reporter cells were cultured at density 5×10^5-1×10^6 cells/ml in a humidified atmosphere with 5% CO2 at 37° C. in RPMI 1640 with Glutamax supplemented with 20% FCS and 0.5 μg/ml G418.
(§2) When applicable, cells and reagents handling was performed by JANUS Automated Workstation (PerkinElmer, Waltham, Mass., USA). Cells were seeded at a density of 5×10^4 per well in 96-well plates. In the primary screening reporter cells for IL-2 activated with PMA (50 ng/ml) and ionomycin (1 μM) were seeded in a 96-well plate and incubated with compounds from the chemical library in a total volume of 100 μL at 37° C. in a humidified atmosphere with 5% CO2 for 18 h. Concentration of compounds was 0.4 μg/ml. The final DMSO concentration was 0.2%, DMSO is not cytotoxic towards EL-4 reporter cells at this concentration. Control samples consisted of cells in medium with 0.2% DMSO with PMA (50 ng/ml) and ionomycin (1 μM). Following incubation cells were analyzed by flow cytometry. Viability was assessed in parallel to the level of EGFP-mediated fluorescence.
Selection of compounds was based on FCC parameters calculated using the following formula:
FCC parameter=relative viability×(relative fluorescence−100)
(§3) Compounds after primary screening were considered to be hits when FCC parameter calculated after primary screening was ≦−5000. After secondary screening area under the curve (A) of FCC parameter versus relative concentration was calculated (maximum concentration used, i.e. 50 μg/ml, was assumed to be 1).

[2] = tested on: reporter cell line for interleukin-2 (EL-4 cells); assay: FCC test, expanded version, IL-2 reporter cell line; format: cell-based, mouse; settings: for The area under the curve showing the relationship between the FCC parameter and compound concentration, IL-2: IL-2 reporter line, PMA and ionomycin, 1.56 to 50 μg/ml, 50 μg/ml assumed to be 1
Method: as §1
as §3, with “1). […]” for “1).”
(§4) Flavonoids selected after preliminary screening were undergoing FCC testing using 5 reporter cell lines: for β-actin, interleukin-2 (IL-2), interleukin-4 (IL-4), interferon-γ (IFN-γ) and interleukin-10 (IL-10). The tested concentrations were in the range from 1.56 to 50 μg/ml.
(§5) Using flow cytometry mean fluorescence intensity (columns, left Y axis) and cell viability (dots, the right Y-axis) was determined for all the experimental points and normalized relative to the control—cells incubated with medium with PMA and ionomycin. The data is the mean of the three experiments ±SEM. The statistical significance of differences between means were determined: * p<0.05, ** p<0.01, *** p<0.001 versus control. Values above the graph represent the area under the curve showing the relationship of the FCC parameter and the relative compound concentration.

[3] = tested on: reporter cell line for interferon-γ (EL-4 cells); assay: FCC test, expanded version, IFN-γ reporter cell line; format: cell-based, mouse; settings: PMA and ionomycin, 1.56 to 50 μg/ml, 50 μg/ml assumed to be 1
Method: as §1
as §3, with “1). […]” for “1).”
as §4, §5

[4] = tested on: reporter cell line for β-actin (EL-4 cells); assay: FCC test, expanded version, β-actin reporter cell line; format: cell-based, mouse; settings: PMA and ionomycin, 1.56 to 50 μg/ml, 50 μg/ml assumed to be 1
Method: as §1
as §3, with “1). […]” for “1).”
as §4, §5

[5] = tested on: reporter cell line for interleukin-4 (EL-4 cells); assay: FCC test, expanded version, IL-4 reporter cell line; format: cell-based, mouse; settings: for The area under the curve showing the relationship between the FCC parameter and compound concentration, IL-4: IL-4 reporter line, PMA and ionomycin, 1.56 to 50 μg/ml, 50 μg/ml assumed to be 1
Method: as §1
as §3, with “1). […]” for “1).”
as §4, §5

[6] = tested on: IL-2 production by Jurkat cells; assay: ELISA for IL-2 in Jurkat cells; format: cell-based; settings: for inhibition at 10 µg/mL / inhibition at 50 µg/mL: Homo sapiens, Jurkat cells, PMA and ionomycin, 24 hours; for inhibition at 10 µg/mL: 10 μg/ml; for inhibition at 50 µg/mL: 50 μg/ml
Method: Jurkat cells were seeded in 48-well plates at a concentration of 1 million/ml. Cells activated with PMA (50 ng/ml) and ionomycin (1 uM) or resting were incubated with 50 selected flavonoids in a concentration of 10 μg/ml and 50 μg/ml for 24 hours in a humidified atmosphere with 5% CO 2 at 37° C. As a control, the respective cells in the medium or in a medium with PMA and ionomycin were employed. After incubation, cells were centrifuged (8 minutes, 1300 rpm), and the cell-free supernatants were stored at −20° C. until measurements. IL-2 was assessed using a commercially available ELISA kits according to the manufacturer's instructions. Each experiment was repeated 3 times.
FCC assay and ELISA assay were repeated three times. Relative data were presented as the means±SEM. […] Statistical significance of differences observed in both assays was tested with ANOVA followed by post hoc Dunnett test using GraphPad software (La Jolla, Calif., USA). In statistical analysis non-relative data were used

[7] = tested on: reporter cell line for interleukin-10 (EL-4 cells); assay: FCC test, expanded version, IL-10 reporter cell line; format: cell-based, mouse; settings: IL-10 reporter line; PMA and ionomycin; 1.56 to 50 μg/ml, 50 μg/ml assumed to be 1
Method: as §1
as §3, with “1). […]” for “1).”
as §4, §5

reporter cell line EL-4 = assay: Viability of reporter cells in FCC assay; format: cell-based, mouse; settings: at concentrations up to 25 mg/ml
Method: as §2
as §5, with “Values above the graph represent the area under the curve showing the relationship of the FCC parameter and the relative compound concentration.” left out

Row | Compound | FCC parameter (IL-2 screening) [1] | The area under the curve showing the relationship between the FCC parameter and compound concentration, IL-2 [2] | The area under the curve showing the relationship between the FCC parameter and compound concentration, IFN [3] | The area under the curve showing the relationship between the FCC parameter and compound concentration, AKT [4] | The area under the curve showing the relationship between the FCC parameter and compound concentration, IL-4 [5] | inhibition at 10 µg/mL [6] | inhibition at 50 µg/mL [6] | The area under the curve showing the relationship between the FCC parameter and compound concentration, IL-10 [7] | inhibition of PMA and ionomycin induced EGFP-mediated fluorescence (in words) ([2]; FCC test, reporter cell lines not specified, judged by area under the curve) | decrease in EGFP-mediated fluorescence ([2]; reporter cell line for IL-2, 25 μg/ml) | decrease in EGFP-mediated fluorescence ([5]; reporter cell line for IL 4, 25 μg/ml) | cytotoxicity in the reporter cell line EL-4 (reporter cell line EL-4) | inhibition of PMA and ionomycin induced IL-2 production by ELISA (in words) ([6]; concentration not given)
1 | O=C1CC(c2ccccc2O)Oc2ccc(O)cc21 (stereo not drawn) [Compound 6, 6-hydroxy-2-(2-hydroxyphenyl)chroman-4-one] | −5169 | −2227 | −2999 | 3622 | 367 | 58% | 100% | −179 |  |  |  |  | 
2 | COc1ccc2c(c1)OC(c1cccc(OC)c1OC)CC2=O (stereo not drawn) [Compound 7, 2-(2,3-dimethoxyphenyl)-7-methoxychroman-4-one] | −6178 | −4104 | −5873 | −1357 | −1865 | 67% | 92% | −2889 |  |  |  |  | 
3 | COc1cc(OC)c2c(c1)OC(c1ccccc1)CC2=O (stereo not drawn) [Compound 8, 5,7-dimethoxy-2-phenylchroman-4-one] | −5788 | −2590 | −4396 | 3973 | 2380 | 80% | 100% | −628 |  |  |  |  | 
4 | COc1cccc2c1C(=O)CC(c1ccccc1)O2 (stereo not drawn) [Compound 9, 5-methoxy-2-phenylchroman-4-one] | −5636 | −3872 | −4745 | 3861 | 675 | 43% | 92% | −1472 |  |  |  |  | 
5 | COc1cccc(C2CC(=O)c3ccccc3O2)c1OC (stereo not drawn) [Compound 10, 2-(2,3-dimethoxyphenyl)chroman-4-one] | −6685 | −2244 | −3142 | 118 | −946 | 32% | 97% | −1336 |  |  |  |  | 
6 | COc1ccc2c(c1)OC(c1ccccc1)CC2=O (stereo not drawn) [Compound 11, 7-methoxy-2-phenylchroman-4-one] | −6917 | −3670 | −3975 | −754 | −1499 | 35% | 97% | −777 |  |  |  |  | 
7 | CC(=O)Oc1cc2c(cc1Cl)C(C)(C)CC(C)(c1cc(Cl)c(OC(C)=O)cc1OC(C)=O)O2 (stereo not drawn) [Compound 12, 2-(2,4-diacetyloxy-5-chlorophenyl)-6-chloro-2,4,4-trimethylchroman-7-yl acetate] | −7615 |  |  | −2936 |  | 100% | 83% |  | highest inhibition | more than 90% | more than 90% | not cytotoxic | strongly inhibited
